{"source": "patent US10472664B2", "about": "“Screening assay for identification of poly(ADP-ribose) polymerase 1 inhibitors” (Institute for Cancer Research, priority 2014, dated 2019)", "test_system": "PARP-1", "assay": "PARP-1 regulation by purified histones in vitro, pADPr detected on Western blot", "type": "biochemical", "settings": "PARP-1 pre-incubated with purified histone, then mixed with NAD; FIG. 2A, 2B", "experimental": "FIGS. 2A-D show PARP-1 protein regulation by histones (poly(ADP-ribose) polymer is denoted “pADPr”). […] Full-length PARP-1 protein (left) and PARP-1 protein cleaved by Caspase 3 (right) were pre-incubated with randomly broken DNA or core histone H4, followed by mixing with NAD. The products of PARP-1 enzymatic activity, poly(ADP-ribose), were detected after PAGE on a Western blot using the anti-pADPr antibody. […] PARP-1 was pre-incubated with different coregulators, followed by mixing with NAD. The amount of the product of PARP-1 enzymatic activity, poly(ADP-ribose), was detected after PAGE on a Western blot using the anti-Change(s) pADPr antibody and quantified independently using the Image Quant.\nThe two pathways described in Example 1 can be separated in vitro by cleaving Zn-fingers from the PARP-1 protein using caspase 3. This isoform of PARP-1 can be still activated by H4, but not by DNA (FIG. 2, panel A). […] Although histones H2Av and H2AvSE inhibit PARP-1 by themselves, when contained inside of a nucleosome they facilitate PARP-1 interaction with H4 and thereby activate PARP-1 (FIG. 2 panel D). […] Without intending to be limited to any particular theory or mechanism of action, it is believed that interactions with histones play an important for PARP-1 activation in vivo in genotoxic stress response and in transcriptional pathways."}
{"substance": "H2Av: purified histone variant H2Av", "values": [{"measurement": "PARP-1 activation (poly(ADP-ribose) production)", "result": "does not activate PARP-1"}]}
